What was measured:
[1] = Stability analysis: mobility of initiator compound from cured print into analog solutions, by HPLC; type: physicochemical; conditions: 40° C. for 10 days, calculated for 1 kg of food per 600 cm^2 printing area
Description: The cardboard is cut to a size of 10×10 cm, is completely immersed in two analog solutions, i. e., 100 ml distilled water and 3% acetic acid aqueous solution, sealing is performed well, and placement is performed at 40° C. for 10 days. The printed matter is taken out, and after standing, the contents of the initiator compounds in the analog solutions are directly analyzed by means of HPLC.

[2] = Solubility of solid photoinitiator in liquid polymerized monomer (HDDA or TPGDA); conditions: dissolved at 50-60° C., stored at room temperature

Row | Structure (SMILES) | Mobility ([1]; 3% acetic acid) | Mobility ([1]; Water) | Solubility ([2]; Polymerized monomer 1: HDDA) | Solubility ([2]; Polymerized monomer 2: TPGDA)
1 | CCCCC1(CCCC)c2ccccc2-c2ccc(C(=O)C(C)(C)N3CCOCC3)cc21 [2-methyl-1-(2-(9,9-dibutylfluorenyl))-2-(N-morpholinyl)-1-acetone] | 60 µg/kg | 50 µg/kg | – | –
2 | CC(C)(C(=O)c1ccc(-c2ccccc2)cc1)N1CCOCC1 [2-methyl-1-(4-biphenyl)-2-morpholinyl-1-acetone] | 98 µg/kg | 80 µg/kg | 20 % (mass fraction) | 15 % (mass fraction)
